Laboratory results as given in patent publication US11091441B2, “Solid state crystalline forms of a selective potassium channel modulator” (Xenon Pharmaceuticals Inc., priority 2019, dated 2021).
Values joined by “and” are separate entries in the source; they are usually repeats but may differ in a detail not shown here. Identical values can stand only once.

What was measured:
Format in all cases: physicochemical
[1] = Gravimetric Vapour Sorption (GVS), hygroscopicity, with post-GVS XRPD; settings: for GVS uptake: 25° C.; for solid form post-GVS (XRPD): material analyzed post-GVS by XRPD
Description: Approximately 10-20 mg of sample was placed into a mesh vapor sorption balance pan and loaded into an IGASorp Moisture Sorption Analyser balance by Hiden Analytical. The sample was subjected to a ramping profile from 40-90% relative humidity (RH) at 10% increments, maintaining the sample at each step until a stable weight had been achieved (98% step completion, minimum step length 30 minutes, maximum step length 60 minutes) at 25° C. After completion of the sorption cycle, the sample was dried using the same procedure to 0% RH, and finally taken back to the starting point of 40% RH, using the same parameters outlined above. Two complete cycles were performed. The weight change during the sorption/desorption cycles were plotted, allowing for the hygroscopic nature of the sample to be determined.

[2] = Variable temperature XRPD (VT-XRPD): polymorphic form at each temperature
Description: VT-XRPD analysis was carried out on a Philips X'Pert Pro Multipurpose diffractometer equipped with a temperature chamber. The samples were loaded onto the VT stage and scanned between 4 and 35.99 °2θ using Cu K radiation (α1 λ=1.54060 Å; α2=1.54443 Å; β=1.39225 Å; α1:α2 ratio=0.5) running in Bragg-Brentano geometry (step size 0.008 °2θ) using 40 kV/40 mA generator settings. Measurements were performed at various temperature profiles. Any holds at specific temperatures are described in the temperature profiles for individual samples.
In another embodiment, VT-XRPD analysis of Compound A Form 11 was carried out using the heating program below in Table 11.

[3] = Aqueous solubility of solid state forms (with post-solubility pH and XRPD of excess solid); settings: for pH of the sample post-solubility: after aqueous solubility test; for solid form of excess solid post aqueous solubility analysis (XRPD): excess solid analyzed by XRPD
[4] = Carr's index (powder flowability) of micronized material; settings: micronized to d50≤3 μm and d90≤5 μm; for Flowability: class from Carr's index
Description: A widely-used metric for how well a powder flows is Carr's index (see, for example, Wang, Y. B. and Williams, R. O. III, “Powders” in Remington: Essentials of Pharmaceutics, Felton, L., ed., London: Pharmaceutical Press, 2013 at pp. 422-423). The bulk density of a powder is measured, along with its corresponding tapped density (after allowing the powder to be compressed in a standard tap density tester, such as the Gardco JV1000, Paul N. Gardner Company, Pompano Beach, Fla., according to a standard method such as that described in Chapter 616 of the United States Pharmacopeia). Once the bulk and tapped densities of a powder have been determined experimentally, Carr's index can be calculated from the following equation: Carr's index=(tapped density−bulk density)/tapped density×100.

[5] = Stability studies: seeded slurry trials, XRPD of the solid; settings: substance used as seed material
Description: Samples of the Compound A Form slurries and the Compound A Form 11 slurries were taken for XRPD analysis after 24 hours at 40° C., after 2 hours at 5° C. and after 24 hours at 5° C.

[6] = 25° C., final scan after cooling from the top temperature

Row | Compound | hygroscopicity by GVS analysis [1] | GVS uptake ([1]; at 90% RH) | solid form post-GVS (XRPD) [1] | VT-XRPD Polymorphic Form [2, 6] | VT-XRPD Polymorphic Form ([2]; 25° C., initial scan) | VT-XRPD Polymorphic Form ([2]; 50° C.) | VT-XRPD Polymorphic Form ([2]; 100° C.) | VT-XRPD Polymorphic Form ([2]; 150° C.) | VT-XRPD Polymorphic Form ([2]; 155° C.) | VT-XRPD Polymorphic Form ([2]; 165° C.) | VT-XRPD Polymorphic Form ([2]; 170° C.) | VT-XRPD Polymorphic Form ([2]; 180° C.) | aqueous solubility [3] | pH of the sample post-solubility [3] | solid form of excess solid post aqueous solubility analysis (XRPD) [3] | VT-XRPD Polymorphic Form ([2]; 160° C.) | Carr's index [4] | Flowability [4] | Solid after 2 hours at 5° C. (XRPD) ([5]; slurry in 1-Propanol) | Solid after 24 hours at 5° C. (XRPD) ([5]; slurry in 1-Propanol) | other results
1 | Cc1cc(N2CCc3cc(F)ccc3C2)cc(C)c1NC(=O)CC(C)(C)C [Compound A Form 9, N-(4-(6-fluoro-3,4-dihydroisoquinolin-2(1H)-yl)-2,6-dimethylphenyl)-3,3-dimethylbutanamide] | slightly hygroscopic | 0.8% | Compound A Form 9 | Amorphous | Form 9 | Form 9 | Form 9 | Form 9 | Form change noted-Similar to Form 9 | Partially crystalline | Partially crystalline | Amorphous | < 100 µg/mL | 7.3 | converted to Compound A Form 4 | – | – | – | – | – | –
2 | Cc1cc(N2CCc3cc(F)ccc3C2)cc(C)c1NC(=O)CC(C)(C)C [Compound A Form 2, N-(4-(6-fluoro-3,4-dihydroisoquinolin-2(1H)-yl)-2,6-dimethylphenyl)-3,3-dimethylbutanamide] | slightly hygroscopic | – | Compound A Form 2 | Amorphous | Form 2 | Form 2 | Form 2 | – | – | Partially crystalline | Amorphous | Amorphous | – | 6.4 | Compound A Form 2 | Partially crystalline | – | – | – | – | GVS uptake ([1]; between 0-90% RH): 0.37%; VT-XRPD Polymorphic Form ([2]; 180° C. (post 10 minute hold)): Amorphous; solubility ([3]; water, thermodynamic from solid): < 100 µg/mL
3 | Cc1cc(N2CCc3cc(F)ccc3C2)cc(C)c1NC(=O)CC(C)(C)C [Compound A, N-(4-(6-fluoro-3,4-dihydroisoquinolin-2(1H)-yl)-2,6-dimethylphenyl)-3,3-dimethylbutanamide] | – | – | – | – | – | – | – | – | – | – | – | – | – | – | – | – | 36 | very poor | – | – | –
4 | Cc1cc(N2CCc3cc(F)ccc3C2)cc(C)c1NC(=O)CC(C)(C)C [Compound A Form 11, N-(4-(6-fluoro-3,4-dihydroisoquinolin-2(1H)-yl)-2,6-dimethylphenyl)-3,3-dimethylbutanamide] | slightly hygroscopic | 0.5% | mixture of Compound A Form 4 and Compound A Form 11 | Amorphous | Form 11 | Form 11 | Form 11 | Form change | Partially crystalline | Partially crystalline | Partially crystalline | Partially crystalline | – | – | – | Partially crystalline | – | – | Form 4 | Form 4 | Solid after 2 hours at 5° C. (XRPD) ([5]; slurry in Ethanol): Form 4; Solid after 24 hours at 5° C. (XRPD) ([5]; slurry in Ethanol): Form 4; Solid after 24 hours at 40° C. (XRPD) ([5]; slurry in Ethanol): Form 2; VT-XRPD Polymorphic Form ([2]; 190° C.): Amorphous
5 | Cc1cc(N2CCc3cc(F)ccc3C2)cc(C)c1NC(=O)CC(C)(C)C [Compound A Form 4, N-(4-(6-fluoro-3,4-dihydroisoquinolin-2(1H)-yl)-2,6-dimethylphenyl)-3,3-dimethylbutanamide] | slightly hygroscopic | 0.4% | Compound A Form 4 | Form 9 | Form 4 | Form 4 | Form 4 | – | – | – | – | – | < 100 µg/mL | 6.3 and 4.9 | mixture of Compound A Form 4 and Compound A Form 11 | – | 8 | excellent | Form 4 | Form 4 | Solid after 24 hours at 40° C. (XRPD) ([5]; slurry in 1-Propanol): Form 2 + 4; Solid after 2 hours at 5° C. (XRPD) ([5]; slurry in Ethanol): Form 4; Solid after 24 hours at 5° C. (XRPD) ([5]; slurry in Ethanol): Form 4; Solid after 24 hours at 40° C. (XRPD) ([5]; slurry in Ethanol): Form 4; VT-XRPD Polymorphic Form ([2]; 60° C.): Form 4; VT-XRPD Polymorphic Form ([2]; 70° C.): Form 4; VT-XRPD Polymorphic Form ([2]; 80° C.): Form 4; VT-XRPD Polymorphic Form ([2]; 95° C.): Form 4; VT-XRPD Polymorphic Form ([2]; 110° C. (5 minute hold)): Form 4 +; VT-XRPD Polymorphic Form ([2]; 120° C. (5 minute hold)): Form 4 +; VT-XRPD Polymorphic Form ([2]; 130° C. (5 minute hold)): Form 4 +; VT-XRPD Polymorphic Form ([2]; 140° C. (5 minute hold)): Form 9
